# Measured values from article PMC12700550, “DLL4^+ neutrophils promote Notch1-mediated endothelial PANoptosis to exacerbate acute lung injury in sepsis” (The Journal of Clinical Investigation, 2025).
# Where “and” joins values, the source holds several entries; their conditions need not be identical. Identical values can stand only once.
# What was measured:
# c-caspase-3 = experiment: c/t caspase-3 (apoptosis) in PVECs cocultured with neutrophils, Western blot; format: cell-based, mouse; settings: for c/t caspase-3 (Figure 4H): 10 μM peptide, 16 h, individual replicates
# Experimental: Wild-type PVECs (5 × 10^5) were cocultured with sorted DLL4^+ neutrophils (5 × 10^5) or DLL4^– neutrophils (5 × 10^5) and then treated with different dosages of peptides or 10 μM DAPT (Thermo Fisher Scientific), 10 μM NDI (GenScript), or 10 μM NDI scramble (GenScript). Notch1-knockdown PVECs (5 × 10^5) were cocultured with sorted DLL4^+ neutrophils (5 × 10^5). After 16 hours, neutrophils were washed away by PBS, and PVECs were collected for further experiments. Cell viability was evaluated by propidium iodide staining using the FITC Annexin V Apoptosis Detection Kit I (catalog 556547, BD Pharmingen). Cell death was quantified as the percentage of propidium iodide–positive cells by flow cytometry.
# PVECs and lung tissue were collected in previous steps. Whole-cell proteins were extracted, and the protein concentration was measured using an ABC protein assay kit (catalog 5000002, Bio-Rad). Proteins were separated using NuPAGE 4%–12% Bis-Tris gels (Invitrogen), transferred to PVDF membranes, and immunoblotted with the antibodies indicated in the figure legends according to the manufacturer’s recommendations. The ZBP1 antibody (catalog PA5-20455; 1:1,000) used in this study was obtained from Thermo Fisher Scientific, and the c-GSDMD (catalog 10137S; 1:250), GSDMD (catalog 39754S; 1:1000), c-caspase-3 (catalog 9661L; 1:250), caspase-3 (catalog 9662S; 1:1,000), p-MLKL (catalog 37333S; 1:250), MLKL (catalog 37705S; 1:1,000), N1ICD (c-Notch1) (catalog 4147S; 1:250), and Notch1 (catalog 3608S; 1:1,000) antibodies were obtained from Cell Signaling Technology. GAPDH (catalog 60004-1-Ig; 1:10,000) and β-actin (catalog A5441, Sigma-Aldrich; 1:5,000) were obtained from ProteinTech. After the blots were incubated with primary antibodies, the membranes were washed 3 times, and the blots were subsequently incubated with the corresponding fluorescent secondary antibody (LI-COR). Bands were detected using an Odyssey FC Dual-Mode Imaging system 2800 (LI-COR).
# C57BL/6 mice, CLP sepsis [1] = experiment: Serum lactate dehydrogenase (LDH), CLP mice; format: in vivo, mouse; set-up: serum LDH (Figure 6C): unit not given here; settings: 20 h; for serum LDH (Figure 6C): 10 mg/kg NDI, individual mice
# Experimental: Sepsis was induced in mice by cecal ligation and puncture (CLP) as described previously ([45], [46]). Mice were anesthetized with isoflurane to a surgical plane and placed in a supine position. CLP was performed through a midline laparotomy. The abdomen was shaved and disinfected. Through a 2 cm midline incision, the cecum was exposed and then ligated with a 4-0 silk suture 1 cm proximal from the distal cecal extremity. […] A small amount of cecal content was extruded through both holes, and the ligated cecum was returned to the peritoneal cavity. The wound was closed in layers. […] A small amount of cecal content was extruded. […] Vehicle groups received an equivalent volume of PBS, while treatment groups received NDI 10 mg/kg in […] PBS via retro-orbital injection after CLP. This dose was chosen primarily on the basis of our laboratory’s prior experience, we have consistently used this dose in mouse CLP models with reproducible efficacy and without observable toxicity ([39], [44]). Sham-operated animals underwent a laparotomy without CLP. After closure, the mice received a subcutaneous injection of 0.5 mL of normal saline to overcome surgery-induced dehydration. […] All mice were subcutaneously injected with a single dose of 0.1 mg/kg buprenorphine after CLP. Serum levels of alanine aminotransferase, aspartate aminotransferase, and lactate dehydrogenase were determined using specific colorimetric enzymatic assays (Pointe Scientific Inc.) according to the manufacturer’s instructions.
# C57BL/6 mice, CLP sepsis [2] = experiment: 10-day survival, CLP mice; format: in vivo, mouse; settings: 10 mg/kg NDI
# Experimental: Sepsis was induced in mice by cecal ligation and puncture (CLP) as described previously ([45], [46]). Mice were anesthetized with isoflurane to a surgical plane and placed in a supine position. CLP was performed through a midline laparotomy. The abdomen was shaved and disinfected. Through a 2 cm midline incision, the cecum was exposed and then ligated with a 4-0 silk suture 1 cm proximal from the distal cecal extremity. For 20-hour CLP experiments, the cecum was punctured twice with a 22-gauge needle. A small amount of cecal content was extruded through both holes, and the ligated cecum was returned to the peritoneal cavity. The wound was closed in layers. For 10-day sepsis survival studies, the cecum was punctured once with a 22-gauge needle. A small amount of cecal content was extruded. Mice were allocated to the vehicle and adoptive transfer of DLL4^+ neutrophils or DLL4^– neutrophils groups. Adoptive transfer mice received a retro-orbital injection of 1 × 10^6 cells per mouse DLL4^+ neutrophils or DLL4^– neutrophils in […] phosphate-buffered saline (PBS) immediately after abdominal closure in both the 20-hour experiments and the survival study. Vehicle groups received an equivalent volume of PBS, while treatment groups received NDI 10 mg/kg in […] PBS via retro-orbital injection after CLP. This dose was chosen primarily on the basis of our laboratory’s prior experience, we have consistently used this dose in mouse CLP models with reproducible efficacy and without observable toxicity ([39], [44]). Sham-operated animals underwent a laparotomy without CLP. After closure, the mice received a subcutaneous injection of 0.5 mL of normal saline to overcome surgery-induced dehydration. […]
# Data represented in the figures are expressed as mean ± SEM and were compared by 2-tailed Student’s t test for 2 groups or 1-way ANOVA using Student-Newman-Keuls post hoc analysis for multiple groups. Survival rates were analyzed by the Kaplan-Meier estimator and compared using a log-rank test. […]
sequence,measurement,setting,value
ECAGSPCHNGGTCEDGI [NDI],effect on c-caspase-3,"c-caspase-3; 10 μM NDI, DLL4^+ neutrophil coculture",significantly reduced these markers of PANoptosis
same,c/t caspase-3 (Figure 4H),c-caspase-3; DLL4^+ neutrophil coculture,0.8975 and 0.9855 and 1.108 and 1.088 and 1.039 and 1.038
same,c/t caspase-3 (Figure 4H),c-caspase-3; DLL4^– neutrophil coculture,0.9343 and 1.21 and 1.29 and 1.079 and 1.0374 and 1.09
same,effect on serum LDH,"C57BL/6 mice, CLP sepsis [1]; DLL4^+ neutrophil-injected CLP mice, 10 mg/kg",significantly reduced the serum levels of hepatic and cell injury markers and proinflammatory cytokines
same,serum LDH (Figure 6C),"C57BL/6 mice, CLP sepsis [1]; DLL4^+ neutrophils + CLP",147.333 and 112.563 and 68.952 and 111.973 and 140.948 and 125.756 and 107.496 and 149.824 and 137.164 and 20.8187 and 17.4427 and 47.264 and 66.5947 and 58.344 and 58.9333 and 52.4507 and 35.9493
same,serum LDH (Figure 6C),"C57BL/6 mice, CLP sepsis [1]; DLL4^– neutrophils + CLP",149.691 and 73.0773 and 124.349 and 178.568 and 24.752 and 44.7893 and 34.7707 and 33.0027 and 50.0933
same,"survival rate, 10 days","C57BL/6 mice, CLP sepsis [2]; N = 20, PBS-injected 15%",75%
same,survival event code (Figure 6M),"C57BL/6 mice, CLP sepsis [2]; individual mice, code 0 stands at day 10, 1 at earlier days (meaning not given), 10 mg/kg",1 and 0
same,survival time (Figure 6M),"C57BL/6 mice, CLP sepsis [2]; no exogenous neutrophils, individual mice, event code in next endpoint, 10 mg/kg",3 days and 6 days and 10 days and 2 days and 4 days
